Laboratory results: patent US20070172957A1, “Methods of identifying anti-inflammatory macrolides” (TAISHO PHARMACEUTICAL CO., LTD., priority 2004, published 2007)

System: genes predictive for the anti-inflammatory macrolide effect
Experiment: Genes statistically predictive of Clari response: differentially expressed with Clari but not the inactive macrolides MAA or Josa (Appendix E)
Assay type: cell-based
Source text: In the case of the above-mentioned (i) related to arachidonic acid biosynthesis, specifically, methods of the embodiment involve assaying whether a test macrolide alters biosynthesis of arachidonic acid, alters the expression or activities of enzymes involved in the biosynthesis or activation of arachidonic acid (e.g., arachidonic acid CoA synthetase, delta-6 desaturase, fatty acid elongase, and delta-5 desaturase, AA-related genes in Tables 2 and 3), or alters the expression of genes identified as predictive for the anti-inflammatory macrolide effect (Appendix E). Assays in which arachidonic acid or gene expression or enzymatic activity is detected can be carried out after contacting a cell with a test macrolide. Any cell line that secretes prostaglandin or produces arachidonic acid can be used. Epithelial and macrophages lines (e.g., A549 or THP-1) are suitable for this purpose; other cell lines can be identified by carrying out assays such as those described in the specific Examples, below. Alternatively, screening assays can be carried out after adding a test macrolide to an in vitro cell system (e.g., a cellular extract or liver microsome preparation) or an in vitro enzyme assay system.

CC[C@H]1OC(=O)[C@H](C)[C@@H](O[C@H]2C[C@@](C)(OC)[C@@H](O)[C@H](C)O2)[C@H](C)[C@@H](O[C@@H]2O[C@H](C)C[C@H](N(C)C)[C@H]2O)[C@](C)(OC)C[C@@H](C)C(=O)[C@H](C)[C@@H](O)[C@]1(C)O [clarithromycin]
group mean, gene BCKDK (SpotID 47949, MAA and Josa vs. Clari): 0.94 | group mean, gene DNASE1L1 (SpotID 47950, MAA and Josa vs. Clari): 1.06 | mean group, DNASE1L1 (SpotID 47950, pooled group mean): 1.03 | group mean, gene COX15 (SpotID 47951, MAA and Josa vs. Clari): 0.94 | mean group, USF2 (SpotID 47973, pooled group mean): 1.05 | group mean, gene THBS1 (SpotID 47987, MAA and Josa vs. Clari): 0.60 | mean group, THBS1 (SpotID 47987, pooled group mean): 0.71 | mean group, RPN2 (SpotID 47988, pooled group mean): 1.02 | group mean, gene PTGER1 (SpotID 47995, MAA and Josa vs. Clari): 0.73 | group mean, gene CTSH (SpotID 48000, MAA and Josa vs. Clari): 1.22 | mean group, CUTL1 (SpotID 48004, pooled group mean): 1.02 | group mean, gene BCL2L2 (SpotID 48006, MAA and Josa vs. Clari): 1.02 | mean group, SRF (SpotID 48026, pooled group mean): 1.03 | group mean, gene SCN1B (SpotID 48121, MAA and Josa vs. Clari): 1.07 | mean group, FRDA (SpotID 48137, pooled group mean): 0.90 | group mean, gene SFRS7 (SpotID 48149, MAA and Josa vs. Clari): 0.85 | mean group, SFRS7 (SpotID 48149, pooled group mean): 0.88 | group mean, gene ZAP3 (SpotID 48160, MAA and Josa vs. Clari): 0.92 | mean group, ZAP3 (SpotID 48160, pooled group mean): 0.95 | group mean, gene SNAPC1 (SpotID 48182, MAA and Josa vs. Clari): 0.87 | group mean, gene OPA1 (SpotID 48192, MAA and Josa vs. Clari): 0.90 | group mean, gene BAT8 (SpotID 48214, MAA and Josa vs. Clari): 1.11 | group mean, gene MAPK12 (SpotID 48233, MAA and Josa vs. Clari): 1.05 | mean group, MAPK12 (SpotID 48233, pooled group mean): 1.03 | group mean, gene DAXX (SpotID 48235, MAA and Josa vs. Clari): 0.93 | group mean, gene GRB2 (SpotID 48266, MAA and Josa vs. Clari): 1.06 | mean group, GRB2 (SpotID 48266, pooled group mean): 1.04 | group mean, gene ARHC (SpotID 48280, MAA and Josa vs. Clari): 1.01 | group mean, gene GCN5L1 (SpotID 48301, MAA and Josa vs. Clari): 1.02 | mean group, GCN5L1 (SpotID 48301, pooled group mean): 1.01 | group mean, gene FN1 (SpotID 48328, MAA and Josa vs. Clari): 0.53 | group mean, gene DNMT1 (SpotID 48333, MAA and Josa vs. Clari): 0.79 | mean group, CCT3 (SpotID 48345, pooled group mean): 1.03 | group mean, gene FN1 (SpotID 48348, MAA and Josa vs. Clari): 0.53 | group mean, gene CNOT2 (SpotID 48363, MAA and Josa vs. Clari): 0.92 | group mean, gene MAPK9 (SpotID 48365, MAA and Josa vs. Clari): 0.92 | mean group, MAPK9 (SpotID 48365, pooled group mean): 0.94 | group mean, gene CNOT2 (SpotID 48396, MAA and Josa vs. Clari): 0.91 | group mean, gene HIF1A (SpotID 48397, MAA and Josa vs. Clari): 0.89 | group mean, gene MGEA5 (SpotID 48411, MAA and Josa vs. Clari): 1.19 | mean group, MGEA5 (SpotID 48411, pooled group mean): 1.13 | group mean, gene SERPINB1 (SpotID 48415, MAA and Josa vs. Clari): 1.32 | mean group, SERPINB1 (SpotID 48415, pooled group mean): 1.28 | group mean, gene M6PR (SpotID 48451, MAA and Josa vs. Clari): 1.12 | group mean, gene DDC (SpotID 48456, MAA and Josa vs. Clari): 0.94 | mean group, DDC (SpotID 48456, pooled group mean): 0.97 | mean group, BARD1 (SpotID 48461, pooled group mean): 0.86 | group mean, gene MCM5 (SpotID 48470, MAA and Josa vs. Clari): 0.68 | group mean, gene RBM3 (SpotID 48471, MAA and Josa vs. Clari): 0.87 | mean group, SpotID 48486 (SpotID 48486 (gene symbol not given), pooled group mean): 0.94 | group mean, gene RPL13A (SpotID 48500, MAA and Josa vs. Clari): 0.90 | mean group, RPL13A (SpotID 48500, pooled group mean): 0.92 | group mean, gene USP24 (SpotID 48508, MAA and Josa vs. Clari): 0.87 | group mean, gene ARAF1 (SpotID 48521, MAA and Josa vs. Clari): 0.95 | mean group, ARAF1 (SpotID 48521, pooled group mean): 0.98 | group mean, gene APLP2 (SpotID 48530, MAA and Josa vs. Clari): 1.15 | mean group, APLP2 (SpotID 48530, pooled group mean): 1.10 | mean group, NFE2L1 (SpotID 48557, pooled group mean): 1.06 | mean group, XBP1 (SpotID 48620, pooled group mean): 1.10 | group mean, gene DIP2 (SpotID 48643, MAA and Josa vs. Clari): 0.87 | group mean, gene KIAA0323 (SpotID 48644, MAA and Josa vs. Clari): 1.14 | group mean, gene SDCBP (SpotID 48646, MAA and Josa vs. Clari): 1.11 | mean group, SDCBP (SpotID 48646, pooled group mean): 1.08 | mean group, FECH (SpotID 48654, pooled group mean): 0.98 | group mean, gene CHK (SpotID 48672, MAA and Josa vs. Clari): 1.01 | group mean, gene HSPBP1 (SpotID 48693, MAA and Josa vs. Clari): 0.87 | mean group, HSPBP1 (SpotID 48693, pooled group mean): 0.91 | group mean, gene SIGIRR (SpotID 48705, MAA and Josa vs. Clari): 1.12 | group mean, gene P4HA1 (SpotID 48707, MAA and Josa vs. Clari): 1.25 | mean group, P4HA1 (SpotID 48707, pooled group mean): 1.18 | group mean, gene MKNK2 (SpotID 48713, MAA and Josa vs. Clari): 1.22 | mean group, PPP3CB (SpotID 48717, pooled group mean): 0.95 | group mean, gene IKKE (SpotID 48725, MAA and Josa vs. Clari): 0.97 | mean group, IKKE (SpotID 48725, pooled group mean): 0.94 | mean group, RALA (SpotID 48732, pooled group mean): 1.06 | mean group, MAFB (SpotID 48747, pooled group mean): 0.93 | group mean, gene KIAA0217 (SpotID 48804, MAA and Josa vs. Clari): 0.85 | mean group, KIAA0217 (SpotID 48804, pooled group mean): 0.88
